Results taken from PubChem BioAssay (NCI).
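Values below derive from 48-hour exposures of cells grown in 96-well plates, with endpoints linearly interpolated between the two concentrations bracketing the appropriate inhibition level. TGI is the concentration that stops growth completely.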

Legend:
Assay in all cases: NCI anticancer screen, dose series, 48 h
COLO 205 colon = tested on: COLO 205 colon
IGROV1 ovarian = tested on: IGROV1 ovarian
M19-MEL melanoma = tested on: M19-MEL melanoma
SK-MEL-5 melanoma = tested on: SK-MEL-5 melanoma
SN12C renal = tested on: SN12C renal
UO-31 renal = tested on: UO-31 renal

COc1c2c(c3ccccc3c1O)C1C=CC2C1 (stereo unspecified)
TGI (COLO 205 colon): 30.1 µM
TGI (IGROV1 ovarian): 39 µM
TGI (M19-MEL melanoma): 5.46 µM
TGI (SK-MEL-5 melanoma): 19.1 µM
TGI (SN12C renal): 28.5 µM
TGI (UO-31 renal): 17.6 µM
